Assay results as given in publication PMC5641551, “Chemical Proteomics for Target Discovery of Head-to-Tail Cyclized Mini-Proteins” (Frontiers in Chemistry, 2017).
No end group written: not given here.

Tested on: Foxo3a transcriptional activity in HEK293 cells co-transfected with 14-3-3β
Assay: Foxo3a luciferase reporter gene assay
Type: cell-based, human
Procedure: Jurkat cells were cultured in RPMI medium containing phenol red supplemented with 10% (v/v) heat deactivated fetal calf serum and 100 U/mL penicillin/streptomycin at 37°C in humidified atmosphere of 5% CO2. HEK293 cells were cultured in Dulbecco's modified eagle high glucose medium supplied with 10% fetal calf serum and 100 U per mL penicillin/streptomycin. Cell transfection was carried out by Jetprime® according to the manufacturer's recommendation (Polyplus, Illkirch, France).
Forkhead box protein 3a induced transcriptional activity was measured on transiently transfected HEK293 cells (5 × 10^4). The reporter plasmid encoding luciferase under the control of a promotor containing forkhead responsive elements and the human p-Foxo3a-HA plasmid were gifts of Michael Greenberg provided by the Addgene consortium (#1787 and #1789; Brunet et al., [1999]). The plasmids encoding the mouse p-14-3-3 beta-GST protein and the functional forkhead transcription factor were used in a 1.5-fold amount compared to the reporter construct. The transfection was completed after 6 h and the cells could recover for 4 h in growth medium. The cells were serum starved using 1% (v/v) fetal bovine serum in phenol red free DMEM medium supplemented with antibiotics overnight. After 4 h peptide and 24 h of fusicoccin-A treatment the luciferase assay was developed using luciferase development kit from Promega E151 (Wisconsin, United States) and the luminescence was measured on a synergy H4 plate reader (Biotek). Control compounds were the PI3K inhibitors wortmannin and LY294002 (both Sigma Aldrich). The recorded data were normalized to the non-treated control sample. Significance and IC50-values were calculated from at least two biological replicates using GraphPad Prism. Data analysis was performed by non-linear regression using a four parameter Hill equation.
If not stated in detail for the respective single experiment the statistical tests were performed using GraphPad Prism 5.04 (GraphPad, La Jolla, CA) using one-way ANOVA with Bonferonni or Dunnett's Post-hoc test. The number of technical and biological repeats was justified by analysis of error and reproducibility of results. Significance threshold P < 0.05 was applied to all experiments. For the data shown in Figure 3 three individuals for the in vivo experiments were used and each data point was performed in three technical replicates. The pull down experiments shown in Figures 4A,B were performed a single time and the data represent two technical repeats. Gel lanes were loaded with single (1x) or doubled (2x) amount of pull down proteins for better visibility. The data illustrated in Figures 4C,D were performed in two independent experiments. Silver stained gel lanes were evaluated by loading various amounts, and then the amount with optimized staining contrast was loaded and used for in-gel protein digestion. The pull down experiments shown in Figures 4E,F were performed a single time. The Western Blots and the pull down experiment shown in Figure 5 represent experiments in three and two independent experiments, respectively. Experiments in a well-based format (Figure 6) were performed with three technical and two biological replicates. All data illustrated in this manuscript show the mean ± standard deviation (SD) unless stated otherwise. The MS based protein identifications were performed in two technical analyses for each sample.
Figure 6 Foxo3a luciferase reporter assay. The modulation of the Akt/PI3K/Foxo3a pathway by the cyclotide [T20K]kB1 binding to 14-3-3 proteins was investigated. HEK293 cells were transiently transfected with Foxo3a-Luc plasmid encoding luciferase under a promotor with Foxo response elements, Foxo3a and 14-3-3β. For control the reporter plasmid (basal value) was also co-transfected with the single functional effector proteins 14-3-3β or Foxo3a. Cells were treated under starving conditions with peptide or fusicoccin-A (FC-A) for 4 h or 24 h, respectively. […]

## CGETCVGGTCNTPGCKCSWPVCTRNGLPV (also: bicyclic or more (positions not given here)) [[T20K]kB1, synthetic cyclotide drug candidate, Thr20 to Lys mutant of kalata B1]
HEK293, luciferase reporter, PI3K inhibitors as controls, peptide 4 h
  Foxo3a transcriptional activity, effect in words: reduced the transcriptional activity of Foxo3a in a concentration-dependent manner
HEK293 transfected with Foxo3a-Luc, Foxo3a and 14-3-3β, peptide treatment 4 h, IC50 ± SD, two independent experiments, four parameter Hill fit, read-out: IC50, reduction of Foxo3a transcriptional activity (luciferase)
  IC50: 5.27 ± 0.25 µM
Inferred from decreased Foxo3a transcriptional activity in reporter assay
  effect on 14-3-3/Foxo3a protein complex (suggested): exerts a stabilizing effect on the 14-3-3/Foxo3a protein complex
